The values that follow come from patent US20130231360A1, “Beta-Carbolines as Inhibitors of Haspin and DYRK Kinases” (THE BRIGHAM AND WOMEN S HOSPITAL, INC., priority 2010, published 2013).

For the assay, the target named is T1, Haspin kinase (Homo sapiens, UniProt Q8TF76).
T1 construct: This full-length Haspin gene was cloned into the pMALc2E vector; made in house; host or cells: E. coli Rosetta 2(DE3)pLysS
T1 sequence (Q8TF76 1-798): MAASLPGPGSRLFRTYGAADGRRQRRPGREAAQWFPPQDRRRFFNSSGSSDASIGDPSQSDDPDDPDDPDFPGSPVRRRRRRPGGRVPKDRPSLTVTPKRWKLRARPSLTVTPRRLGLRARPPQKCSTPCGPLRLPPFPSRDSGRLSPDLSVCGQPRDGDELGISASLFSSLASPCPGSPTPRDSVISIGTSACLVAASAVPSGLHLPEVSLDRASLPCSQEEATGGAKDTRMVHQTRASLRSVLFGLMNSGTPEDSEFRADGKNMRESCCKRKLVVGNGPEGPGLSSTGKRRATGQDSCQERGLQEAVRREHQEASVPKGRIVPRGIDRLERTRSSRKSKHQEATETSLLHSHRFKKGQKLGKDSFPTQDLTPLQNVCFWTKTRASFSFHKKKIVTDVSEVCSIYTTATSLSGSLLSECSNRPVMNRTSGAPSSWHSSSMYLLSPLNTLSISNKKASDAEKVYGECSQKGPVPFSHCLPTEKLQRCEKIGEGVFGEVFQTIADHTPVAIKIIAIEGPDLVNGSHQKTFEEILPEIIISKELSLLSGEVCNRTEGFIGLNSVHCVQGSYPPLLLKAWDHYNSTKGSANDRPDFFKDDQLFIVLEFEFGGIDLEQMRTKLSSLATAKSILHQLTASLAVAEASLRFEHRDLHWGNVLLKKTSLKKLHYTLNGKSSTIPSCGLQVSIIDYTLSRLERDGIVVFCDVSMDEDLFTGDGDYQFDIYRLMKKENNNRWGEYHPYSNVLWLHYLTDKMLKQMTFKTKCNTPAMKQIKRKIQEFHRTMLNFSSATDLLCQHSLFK
The assay can be described thus: TR-FRET Haspin assay. It is filed as biochemical. As to conditions: for Haspin kinase inhibitory activity (in words): high throughput screen by TR-FRET, hits revalidated in radiometric assay and confirmed in cellular assay. The source says: A synthetic codon-optimized human Haspin cDNA was made in vector pUC57 at GenScript Corporation (Piscataway, N.J.) to facilitate bacterial expression. This full-length Haspin gene was cloned into the pMALc2E vector (New England Biolabs, Ipswich, Mass.) using EcoR I and Sal I sites. Haspin was expressed and purified as an N-terminal MBP fusion protein from E. coli Rosetta™2(DE3)pLysS cells (Novagen, Madison, Wis.). A freshly transformed colony was used to initiate a small volume liquid culture in LB medium with 2 g/l glucose, 34 μg/ml chloramphenicol and 100 μg/ml ampicillin. This culture was used to inoculate a large volume of the same medium and grown until an absorbance at 600 nm of 0.5 was reached. Protein expression was induced by adding 0.3 mM isopropyl thiogalactoside and growth with shaking at room temperature for 14 hours. Affinity column chromatography was carried out using amylose resin following the manufacturer's instructions (New England Biolabs). The fusion protein was eluted in 50 mM Tris, pH 7.5, 200 mM NaCl, 10 mM maltose and dialyzed into 50 mM Tris, pH 7.5, 200 mM NaCl, 2 mM DTT and 50% glycerol. The purity and yield of intact fusion protein was determined by SDS-PAGE and Coomassie Blue staining, in comparison with known quantities of bovine serum albumin.
This peptide carried biotin on the side chain of the C-terminal lysine. Recombinant full-length human histone H3 was from New England Biolabs. ATP and Staurosporine were purchased from Sigma-Aldrich (St Louis, Mo.). Rabbit monoclonal anti-Histone H3T3ph antibody (clone JY325) from Millipore (Billerica, Mass.) was directly labeled by PerkinElmer (Waltham, Mass.) with LANCE Eu W1024. For indirect detection, LANCE Eu W1024 labeled anti-rabbit IgG antibody was used (PerkinElmer). Streptavidin conjugated to SureLight-Allophycocyanin (PerkinElmer) was used as the acceptor fluorophore.
A CRS CataLyst Express robotic arm (Thermo Fisher Scientific, Waltham, Mass.) and a Cybi-well 384 channel simultaneous pipettor (CyBio AG, Jena, Germany) were used to carry out the high throughput screening of a small molecule library. Kinase reactions were performed in 50 mM Tris, pH 7.5, 5 mM MgCl2, 1 mM DTT, 0.01% Brij-35 using Proxiplate 384 Plus white assay plates (PerkinElmer). […] The reaction was incubated for 10 minutes at room temperature. The reaction was terminated by addition of […] 50 mM EDTA, 2 nM Europium labeled anti-Histone H3T3ph antibody, 40 nM Streptavidin-APC. After a two hour incubation at room temperature, TR-FRET measurements were performed using a PHERAstar HTS microplate reader (BMG Labtech, Offenberg, Germany), and were expressed as ratios of acceptor fluorescence at 665 nm over donor fluorescence at 620 nm.
Data were analyzed using GraphPad Prism Version 4 (GraphPad Software Inc, La Jolla, Calif.). No inhibitor (“MAX”) and Staurosporine inhibitor (“MIN”) controls were used to calculate Z′ values and signal to background ratios during the high throughput screen. […] Km concentrations were also determined by non-linear regression.
To identify Haspin inhibitors by high throughput screening a homogeneous kinase assay based on time-resolved fluorescence resonance energy transfer (TR-FRET) was designed (Patnaik D., et al. J Biomol. Screen 13: 1025-1034, […].). This TR-FRET assay was utilized to screen a small molecule library of approximately 140,000 compounds. Primary hits were re-tested by TR-FRET assay using the peptide substrate and then revalidated by assaying the compounds in a radiometric assay using full-length Histone H3 as a protein substrate.
IC50 values were determined for inhibition of Haspin kinase utilizing the TR-FRET assay described in Example 3.

Setting [1] is: inhibition of Haspin kinase, TR-FRET assay of Example 3, MBP-Haspin, H3(1-21)-biotin peptide 0.1 μM, ATP 200 μM, read-out: IC50.

Where two headings read alike, the source gives them in different places.

Usually IC50 stands for the midpoint of a concentration-inhibition curve. With `Cc1nccc2c1[nH]c1cc(OCCCCN)ccc12` [LDN-209932], under setting [1], the IC50 was less than 2000 nM.

In the case of `COc1cccc2c3ccnc(C)c3n(CCCCN)c12` [LDN-211893], the IC50 under setting [1] was less than 300 nM.

With `COc1cccc2c1c1ccnc(C)c1n2CCCCN` [LDN-211895], the half-inhibitory concentration (IC50) under setting [1] is less than 3500 nM.

Turning to `NCCCCn1c2cc(O)ccc2c2ccnc(C(F)(F)F)c21` [LDN-211998], the IC50 under setting [1] was less than 300 nM.

Take `COc1ccc2c(c1)[nH]c1c(C)nccc12` [LDN-97388, harmine, reference compound]: the IC50 was less than 1000 nM and the “Haspin kinase inhibitory activity (in words)” value is on record as “identified as a Haspin kinase inhibitors”.

In the case of `COc1ccc2c3ccnc(C(C)C)c3n(CCCCN)c2c1` [LDN-209985], the IC50 under setting [1] was less than 600 nM.

For `Cc1nccc2c3ccc(F)cc3n(CCCCN)c12` [LDN-209987], under setting [1], the 50% inhibitory concentration (IC50) was less than 600 nM.

Regarding `Cc1nccc2c3ccc(NS(C)(=O)=O)cc3n(CCCCN)c12` [LDN-211899], the IC50 under setting [1] is less than 1000 nM.

Take `COc1ccc2c(c1)[nH]c1c(-c3ccccc3)nccc12` [LDN-209952]: the IC50 (read-out: IC50) was greater than 5000 nM.

Regarding `CCc1nccc2c3ccc(OC)cc3n(CCCCN)c12` [LDN-209984], the IC50 under setting [1] is less than 200 nM.

As to `COc1ccc2c(c1)[nH]c1ccccc12` [LDN-209934], the IC50 (read-out: IC50) is greater than 1000 nM.

Consider `COc1ccc2c3ccnc(C)c3n(CCCC(N)c3ccccc3)c2c1` (centres unmarked) [LDN-211902], for which the 50% inhibitory concentration (IC50) (read-out: IC50) was less than 200 nM.

In the case of `COc1ccc2c(c1)[nH]c1ncccc12` [LDN-209919], the IC50 (read-out: IC50) was greater than 100000 nM.

With `Cc1nccc2c1[nH]c1cc(OCCCCNC(=O)OC(C)(C)C)ccc12` [LDN-209920], the IC50 (read-out: IC50) is greater than 10000 nM.

Take `CNCCCCn1c2cc(OC)ccc2c2ccnc(C)c21` [LDN-211900]: under setting [1], the 50% inhibitory concentration (IC50) was less than 400 nM.

As to `Cc1nccc2c1[nH]c1cc(OCCCNC(=O)OC(C)(C)C)ccc12` [LDN-209921], for the setting “read-out: IC50”, the IC50 is greater than 10000 nM.

For `Cc1nccc2c3ccc(O)cc3n(CCCCN)c12` [LDN-209986], under setting [1], the IC50 was less than 200 nM.

Consider `COc1ccc2c3ccnc(C)c3n(CCCCN)c2c1` [LDN-211901], for which the IC50 under setting [1] is less than 500 nM.

Turning to `COc1ccc2c3ccnc(C(F)(F)F)c3n(CCCCN)c2c1` [LDN-211898], under setting [1], the IC50 was less than 150 nM.

For harmol [LDN-21813, reference compound], the “Haspin kinase inhibitory activity (in words)” value is listed as “identified as a Haspin kinase inhibitors”. Moreover, under setting [1], the IC50 was less than 1500 nM.

`COc1ccc2c3ccncc3n(CCCCN)c2c1` [LDN-209983]: the IC50 under setting [1] is less than 350 nM.

For the compound `Cc1nccc2c3ccc(OC(C)(C)C)cc3n(CCCCN)c12` [LDN-211903], for the setting “read-out: IC50”, the IC50 is less than 5000 nM.

With `COc1ccc2c(c1)[nH]c1c(/C=C/c3ccccc3)nccc12` [LDN-57292], the “Haspin kinase inhibitory activity (in words)” value is “identified as a Haspin kinase inhibitors”. For the same compound, the IC50 (read-out: IC50) is less than 2000 nM.

Regarding `c1ccc2c(c1)[nH]c1cnccc12` [LDN-14063], the 50% inhibitory concentration (IC50) (read-out: IC50) is greater than 10000 nM.

As for `Cc1nccc2c1[nH]c1cc(OCCCN)ccc12` [LDN-209931], under setting [1], the IC50 was less than 1000 nM.

As to `COc1ccc2c3ccnc(C)c3n(CCCCN)c2c1Cl` [LDN-211897], under setting [1], the IC50 was less than 1200 nM.

On to `COc1ccc2c(c1)c1ccnc(C)c1n2CCCCN` [LDN-211894], for which the IC50 under setting [1] is less than 3000 nM.

On to `COc1ccc2c3ccnc(C)c3n(CCCCN)c2c1` [LDN-209953], for which, under setting [1], the concentration for half-maximal inhibition (IC50) is less than 200 nM.

In the case of `Cc1nccc2c3cc4c(cc3n(CCCCN)c12)OCO4` [LDN-211896], the IC50 under setting [1] was less than 700 nM.
